Measurements from patent US20240270821A1, “GIP/GLP1/GCG TRI-RECEPTOR AGONISTS AND USES THEREOF” (priority 2023, published 2024).
Starred links: 1 amine or outer side, 2 acyl side, 3 side chain; linkers in the order of their positions; H or OH if unused. Non-standard residues stand in square brackets, D forms with d. Residues, ends and D or L forms follow the SMILES beside them. Groups on a side chain read outwards from the residue. *: point of attachment. C18 diacid = O=C(O)CCCCCCCCCCCCCCCCC(=O)*; αMePhe(2-F) = C[C@](N)(Cc1ccccc1F)C(=O)O; γGlu = O=C(O)[C@H](CCC(=O)[*:2])N[*:1]; 3Pal = N[C@@H](Cc1cccnc1)C(=O)O; 4Pal = N[C@@H](Cc1ccncc1)C(=O)O; αMeL = CC(C)C[C@](C)(N)C(=O)O; αMeS = C[C@](N)(CO)C(=O)O; Orn = NCCC[C@H](N)C(=O)O; AEEA = NCCOCCOCC(=O)O; Aib = CC(C)(N)C(=O)O

How the values were obtained:
Format in all cases: cell-based
hGIPR [1] = target: T1, hGIPR (Homo sapiens, UniProt P48546); assay: Functional cAMP activity in the presence of 1% HSA; conditions: read-out: cAMP Rel EC50, hGIPR
T1 sequence (P48546 22-466): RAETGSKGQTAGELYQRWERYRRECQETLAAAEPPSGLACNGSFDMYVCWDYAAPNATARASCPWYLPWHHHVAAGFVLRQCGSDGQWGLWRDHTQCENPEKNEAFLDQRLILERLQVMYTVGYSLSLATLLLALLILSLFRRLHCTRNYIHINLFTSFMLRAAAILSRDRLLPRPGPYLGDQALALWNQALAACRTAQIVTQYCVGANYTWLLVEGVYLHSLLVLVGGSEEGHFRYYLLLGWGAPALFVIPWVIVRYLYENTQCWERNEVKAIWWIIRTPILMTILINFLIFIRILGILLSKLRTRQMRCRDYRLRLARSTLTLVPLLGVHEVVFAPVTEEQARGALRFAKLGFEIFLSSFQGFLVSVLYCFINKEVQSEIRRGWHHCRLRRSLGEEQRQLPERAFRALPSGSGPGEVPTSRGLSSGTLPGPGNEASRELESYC

hGLP-1R [2] = target: T2, hGLP-1R (Homo sapiens, UniProt P43220); assay: Functional cAMP activity in the presence of 1% HSA; conditions: read-out: cAMP Rel EC50, hGLP-1R
human GcgR = human GcgR (Homo sapiens, UniProt P47871); assay: Functional cAMP activity in the presence of 1% HSA; conditions: read-out: cAMP Rel EC50, hGcgR
hGIPR [3] = target: T1, hGIPR; assay: Functional cAMP activation in the presence of 0.1% casein (no HSA); conditions: read-out: Relative cAMP EC50, hGIPR;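 as to Relative cAMP EC50, hGIPR: intracellular cAMP rise after 30 min at 37 °C read by HTRF against a standard curve, scaled between buffer alone (0%) and top control ligand concentration (100%), four-parameter fit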;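 as to Relative cAMP EC50, hGLP-1R: intracellular cAMP rise after 30 min at 37 °C read by HTRF, normalized between buffer only (0%) and maximal control ligand (100%), four-parameter variable-slope fit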;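 as to Relative cAMP EC50, hGcgR: intracellular cAMP rise after 30 min at 37 °C, read by HTRF against a cAMP standard curve, scaled from buffer only (0%) to maximal control ligand response (100%)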
hGLP-1R [4] = target: T2, hGLP-1R; assay: as above; conditions: read-out: Relative cAMP EC50, hGLP-1R
hGcgR = hGcgR (Homo sapiens, UniProt P47871); assay: as above; conditions: read-out: Relative cAMP EC50, hGcgR;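 also: intracellular cAMP rise after 30 min at 37 °C, read by HTRF against a cAMP standard curve, scaled from buffer only (0%) to maximal control ligand response (100%)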
Sequence of hGcgR (P47871 26-477): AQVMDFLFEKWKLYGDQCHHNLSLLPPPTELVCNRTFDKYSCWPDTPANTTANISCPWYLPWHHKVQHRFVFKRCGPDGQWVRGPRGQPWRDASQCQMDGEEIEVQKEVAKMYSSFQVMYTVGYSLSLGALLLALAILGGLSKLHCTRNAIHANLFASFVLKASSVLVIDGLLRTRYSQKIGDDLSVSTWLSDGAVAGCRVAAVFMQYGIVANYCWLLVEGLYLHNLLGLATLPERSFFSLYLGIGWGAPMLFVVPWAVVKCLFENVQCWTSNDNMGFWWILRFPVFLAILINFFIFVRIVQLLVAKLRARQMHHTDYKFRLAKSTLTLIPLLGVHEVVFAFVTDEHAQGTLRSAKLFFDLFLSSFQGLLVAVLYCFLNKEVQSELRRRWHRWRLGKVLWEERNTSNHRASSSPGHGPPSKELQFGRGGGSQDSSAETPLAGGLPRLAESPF
Experimental: After a 30-minute incubation at 37° C., the resulting increase in intracellular cAMP is quantitatively determined using the CisBio CAMP Dynamic 2 HTRF Assay Kit (62AM4PEJ). Briefly, cAMP levels within the cell are detected by adding the cAMP-d2 conjugate in cell lysis buffer followed by the antibody anti-cAMP-Eu^3+-Cryptate, also in cell lysis buffer.
Intracellular cAMP levels are determined by extrapolation using a standard curve. Dose response curves of compounds are plotted as the percentage of stimulation normalized to minimum (buffer only) and maximum (maximum concentration of each control ligand) values and analyzed using a four parameter non-linear regression fit with a variable slope (Genedata Screener 13). EC50 is the concentration of compound causing half-maximal simulation in a dose response curve. Each relative EC50 value for the Geometric mean calculation is determined from a curve fitting.

T2 sequence (P43220 24-463): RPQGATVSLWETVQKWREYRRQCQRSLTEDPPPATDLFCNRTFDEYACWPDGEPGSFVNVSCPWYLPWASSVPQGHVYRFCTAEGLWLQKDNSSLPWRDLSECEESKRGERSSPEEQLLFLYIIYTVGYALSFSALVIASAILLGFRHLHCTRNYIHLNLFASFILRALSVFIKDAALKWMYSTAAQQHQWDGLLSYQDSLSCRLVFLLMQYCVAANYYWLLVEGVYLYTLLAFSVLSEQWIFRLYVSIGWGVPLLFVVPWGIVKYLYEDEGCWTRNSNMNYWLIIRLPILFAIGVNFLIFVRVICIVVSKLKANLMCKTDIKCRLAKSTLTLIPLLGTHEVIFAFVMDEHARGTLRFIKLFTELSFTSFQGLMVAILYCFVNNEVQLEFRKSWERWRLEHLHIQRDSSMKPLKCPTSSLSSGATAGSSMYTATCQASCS
Sequence of human GcgR (P47871 26-477): as the sequence (P47871 26-477) above

SMILES | EC50 (hGIPR [1]) [nM] | EC50 (hGLP-1R [2]) [nM] | EC50 (human GcgR) [nM] | EC50 (hGIPR [3]) [nM] | EC50 (hGLP-1R [4]) [nM] | EC50 (hGcgR) [nM]
CC[C@H](C)[C@H](NC(=O)[C@H](Cc1ccccc1)NC(=O)[C@H](C)NC(=O)C(C)(C)NC(=O)[C@H](CCC(N)=O)NC(=O)[C@H](C)NC(=O)[C@H](CCCCNC(=O)COCCOCCNC(=O)CC[C@H](NC(=O)CCCCCCCCCCCCCCCCC(=O)O)C(=O)O)NC(=O)[C@H](CCCCN)NC(=O)[C@H](CC(=O)O)NC(=O)[C@H](CC(C)C)NC(=O)[C@H](CC(C)C)NC(=O)[C@@H](NC(=O)[C@](C)(CO)NC(=O)[C@H](Cc1ccncc1)NC(=O)[C@H](CC(=O)O)NC(=O)[C@H](CO)NC(=O)[C@@H](NC(=O)[C@](C)(Cc1ccccc1F)NC(=O)[C@@H](NC(=O)CNC(=O)[C@H](CCC(N)=O)NC(=O)C(C)(C)NC(=O)[C@@H](N)Cc1ccc(O)cc1)[C@@H](C)O)[C@@H](C)O)[C@@H](C)CC)C(=O)N[C@@H](CCC(=O)O)C(=O)N[C@@H](Cc1ccc(O)cc1)C(=O)N[C@@H](CC(C)C)C(=O)N[C@@H](CCC(=O)O)C(=O)N[C@@H](CCC(=O)O)C(=O)NCC(=O)NCC(=O)N1CCC[C@H]1C(=O)N[C@@H](CO)C(=O)N[C@@H](CO)C(=O)NCC(=O)N[C@@H](C)C(=O)N1CCC[C@H]1C(=O)N1CCC[C@H]1C(=O)N1CCC[C@H]1C(=O)N[C@@H](CCC(=O)O)C(N)=O [Example 464] (H-Y[Aib]QGT[αMePhe(2-F)]TSD[4Pal][αMeS]ILLDKK([AEEA-γGlu-C18 diacid])AQ[Aib]AFIEYLEEGGPSSGAPPPE-NH2) | 19.9 | 45.5 | 194 | 0.072 | 0.466 | 1.25
CC[C@H](C)[C@H](NC(=O)[C@H](Cc1ccccc1)NC(=O)[C@H](C)NC(=O)C(C)(C)NC(=O)[C@H](CCC(N)=O)NC(=O)[C@H](C)NC(=O)[C@H](CCCCNC(=O)COCCOCCNC(=O)CC[C@H](NC(=O)CCCCCCCCCCCCCCCCC(=O)O)C(=O)O)NC(=O)[C@H](CCCCN)NC(=O)[C@H](CC(=O)O)NC(=O)[C@H](CC(C)C)NC(=O)[C@H](CC(C)C)NC(=O)[C@@H](NC(=O)[C@](C)(CO)NC(=O)[C@H](Cc1cccnc1)NC(=O)[C@H](CC(=O)O)NC(=O)[C@H](CO)NC(=O)[C@@H](NC(=O)[C@](C)(Cc1ccccc1F)NC(=O)[C@@H](NC(=O)CNC(=O)[C@H](CCC(N)=O)NC(=O)C(C)(C)NC(=O)[C@@H](N)Cc1ccc(O)cc1)[C@@H](C)O)[C@@H](C)O)[C@@H](C)CC)C(=O)N[C@@H](CCC(=O)O)C(=O)N[C@@H](Cc1ccc(O)cc1)C(=O)N[C@@H](CC(C)C)C(=O)N[C@@H](CCC(=O)O)C(=O)N[C@@H](CCC(=O)O)C(=O)NCC(=O)NCC(=O)N1CCC[C@H]1C(=O)N[C@@H](CO)C(=O)N[C@@H](CO)C(=O)NCC(=O)N[C@@H](C)C(=O)N1CCC[C@H]1C(=O)N1CCC[C@H]1C(=O)N1CCC[C@H]1C(=O)N[C@@H](CCC(=O)O)C(N)=O [Example 465] (H-Y[Aib]QGT[αMePhe(2-F)]TSD[3Pal][αMeS]ILLDKK([AEEA-γGlu-C18 diacid])AQ[Aib]AFIEYLEEGGPSSGAPPPE-NH2) | 44.6 | 56.3 | 233 | 0.148 | 0.575 | 1.5
CC[C@H](C)[C@H](NC(=O)[C@H](Cc1ccccc1)NC(=O)[C@H](C)NC(=O)C(C)(C)NC(=O)[C@H](CCC(N)=O)NC(=O)[C@H](C)NC(=O)[C@H](CCCCNC(=O)COCCOCCNC(=O)CC[C@H](NC(=O)CCCCCCCCCCCCCCCCC(=O)O)C(=O)O)NC(=O)[C@H](CCCN)NC(=O)[C@H](CC(=O)O)NC(=O)[C@H](CC(C)C)NC(=O)[C@](C)(CC(C)C)NC(=O)[C@@H](NC(=O)[C@](C)(CO)NC(=O)[C@H](Cc1ccncc1)NC(=O)[C@H](CC(=O)O)NC(=O)[C@H](CO)NC(=O)[C@@H](NC(=O)[C@](C)(Cc1ccccc1F)NC(=O)[C@@H](NC(=O)CNC(=O)[C@H](CCC(N)=O)NC(=O)C(C)(C)NC(=O)[C@@H](N)Cc1c[nH]cn1)[C@@H](C)O)[C@@H](C)O)[C@@H](C)CC)C(=O)N[C@H](CCC(=O)O)C(=O)N[C@@H](Cc1ccc(O)cc1)C(=O)N[C@@H](CC(C)C)C(=O)N[C@@H](CC(C)C)C(=O)N[C@@H](CCC(=O)O)C(=O)NCC(=O)NCC(=O)N1CCC[C@H]1C(=O)N[C@@H](CO)C(=O)N[C@@H](CO)C(=O)NCC(=O)N[C@@H](CCC(=O)O)C(=O)N1CCC[C@H]1C(=O)N1CCC[C@H]1C(=O)N1CCC[C@H]1C(=O)N[C@@H](CCC(=O)O)C(N)=O [Example 466] (H-H[Aib]QGT[αMePhe(2-F)]TSD[4Pal][αMeS]I[αMeL]LD[Orn]K([AEEA-γGlu-C18 diacid])AQ[Aib]AFI[dE]YLLEGGPSSGEPPPE-NH2; N-terminus assumed) | 5.65 | 13.3 | 348 | 0.0466 | 0.207 | 5.84
CC[C@H](C)[C@H](NC(=O)[C@H](Cc1ccccc1)NC(=O)[C@H](C)NC(=O)C(C)(C)NC(=O)[C@H](CCC(N)=O)NC(=O)[C@H](C)NC(=O)[C@H](CCCCNC(=O)COCCOCCNC(=O)CC[C@H](NC(=O)CCCCCCCCCCCCCCCCC(=O)O)C(=O)O)NC(=O)[C@H](CCCCN)NC(=O)[C@H](CC(=O)O)NC(=O)[C@H](CC(C)C)NC(=O)[C@H](CC(C)C)NC(=O)[C@H](CCC(=O)O)NC(=O)[C@](C)(CO)NC(=O)[C@H](Cc1ccc(O)cc1)NC(=O)[C@H](CC(=O)O)NC(=O)[C@H](CO)NC(=O)[C@@H](NC(=O)[C@](C)(Cc1ccccc1F)NC(=O)[C@@H](NC(=O)CNC(=O)[C@H](CCC(N)=O)NC(=O)C(C)(C)NC(=O)[C@@H](N)Cc1ccc(O)cc1)[C@@H](C)O)[C@@H](C)O)C(=O)N[C@@H](CCC(=O)O)C(=O)N[C@@H](Cc1ccc(O)cc1)C(=O)N[C@@H](CC(C)C)C(=O)N[C@@H](CCC(=O)O)C(=O)N[C@@H](CCC(=O)O)C(=O)NCC(=O)NCC(=O)N1CCC[C@H]1C(=O)N[C@@H](CO)C(=O)N[C@@H](CO)C(=O)NCC(=O)N[C@@H](C)C(=O)N1CCC[C@H]1C(=O)N1CCC[C@H]1C(=O)N1CCC[C@H]1C(=O)N[C@@H](CCC(=O)O)C(N)=O [Example 467] (H-Y[Aib]QGT[αMePhe(2-F)]TSDY[αMeS]ELLDKK([AEEA-γGlu-C18 diacid])AQ[Aib]AFIEYLEEGGPSSGAPPPE-NH2) | 10.7 | 36.4 | 850 | 0.0855 | 0.358 | 9.34
CC[C@H](C)[C@H](NC(=O)[C@H](Cc1ccccc1)NC(=O)[C@H](C)NC(=O)C(C)(C)NC(=O)[C@H](CCC(N)=O)NC(=O)[C@H](C)NC(=O)[C@H](CCCCNC(=O)COCCOCCNC(=O)COCCOCCNC(=O)CC[C@H](NC(=O)CCCCCCCCCCCCCCCCC(=O)O)C(=O)O)NC(=O)[C@H](CCCCN)NC(=O)[C@H](CC(=O)O)NC(=O)[C@H](CC(C)C)NC(=O)[C@H](CC(C)C)NC(=O)[C@@H](NC(=O)[C@](C)(CO)NC(=O)[C@H](Cc1ccc(O)cc1)NC(=O)[C@H](CC(=O)O)NC(=O)[C@H](CO)NC(=O)[C@@H](NC(=O)[C@](C)(Cc1ccccc1F)NC(=O)[C@@H](NC(=O)CNC(=O)[C@H](CCC(N)=O)NC(=O)C(C)(C)NC(=O)[C@@H](N)Cc1ccc(O)cc1)[C@@H](C)O)[C@@H](C)O)[C@@H](C)CC)C(=O)N[C@@H](CCC(=O)O)C(=O)N[C@@H](Cc1ccc(O)cc1)C(=O)N[C@@H](CC(C)C)C(=O)N[C@@H](CCC(=O)O)C(=O)N[C@@H](CCC(=O)O)C(=O)NCC(=O)NCC(=O)N1CCC[C@H]1C(=O)N[C@@H](CO)C(=O)N[C@@H](CO)C(=O)NCC(=O)N[C@@H](C)C(=O)N1CCC[C@H]1C(=O)N1CCC[C@H]1C(=O)N1CCC[C@H]1C(=O)N[C@@H](CCC(=O)O)C(N)=O [Example 468] (H-Y[Aib]QGT[αMePhe(2-F)]TSDY[αMeS]ILLDKK([AEEA-AEEA-γGlu-C18 diacid])AQ[Aib]AFIEYLEEGGPSSGAPPPE-NH2) | 4.76 | 30.7 | 195 | 0.0222 | 0.466 | 1.95
